Key:
hippocampal synaptosomes = assay: [3H]glutamate release from hippocampal synaptosomes; assay type: cell-based, rat; conditions: BDNF 30 ng/ml
Method: Isolation of Synaptosomes. The synaptosomal fraction from rat hippocampi was prepared as routinely in the lab^3. Hippocampal slices (male Wistar rats, 7-10 weeks old) were prepared and treated with vehicle or Aβ1-42, as described above. Then, slices were added to 5 ml of ice-cold isosmotic sucrose solution (0.32 M, containing 1 mM EDTA, 1 mg/ml BSA, 10 mM HEPES, pH 7.4), and homogenized in a Potter-Elvehjem homogenizer with a Teflon piston (four up-and-down strokes) and the volume completed to 10 ml with the sucrose solution. After a first centrifugation at 3,000 g for 10 min (Heraeus sepatech—Biofuge 28RS centrifuge with 3746 rotor), the supernatant was collected and centrifuged at 14,000 g for 12 min. The whole procedure was conducted at 4° C. The pellet was resuspended in 1 ml 45% Percoll in KHR solution consisting of (in mM) NaCl 140, EDTA 1, HEPES 10, KCl 5, and glucose 5, and centrifuged at 16,000 g for 2 min. The synaptosomal fraction corresponds to the top buoyant layer and was collected from the tube. Percoll was removed by two washes with 1 ml KHR solution centrifuged at 16,000 g for 2 min each; synaptosomes were then kept on ice and used within 3 hours. The synaptosomal protein concentration was assayed using the Bio-Rad DC™ protein assay and BSA as standard.
[^3H]Glutamate Release from Hippocampal Synaptosomes. [3H]Glutamate release from hippocampal synaptosomes was performed as routinely in the lab^39. […]
Calculation of drug effects on glutamate release. At the end of each experiment, aliquots (500 μl) of each sample as well as the filters from each superfusion chamber were analyzed by liquid scintillation counting. The fractional release was expressed as the percentage of total radioactivity present in the synaptosomes at each time point. The amount of radioactivity released by each pulse of K^+ (S1 and S2) was calculated by integration of the area of the peak upon subtraction of the estimated basal tritium release. […]

hippocampal slices = assay: θ-burst Long-Term Potentiation (LTP) in acute hippocampal slices; assay type: cell-based, rat
Source text: Young adult (7-10 weeks old) male Wistar rats were sacrificed by decapitation under deep isoflurane anaesthesia. The brain was quickly removed, hemisected and both hippocampi were dissected free within ice-cold artificial cerebrospinal fluid (aCSF) (mM: NaCl 124; KCl 3; NaH2PO4 1.25; NaHCO326; MgSO4 1; CaCl2 2; and glucose 10), previously gassed with 95% O2 and 5% CO2, pH 7.4.
Slices (400 μm-thick) were cut perpendicularly to the long axis of the hippocampus with a McIlwain tissue chopper and allowed to recover for at least 60 min in a resting chamber, filled with the gassed aCSF, at room temperature (RT) (22-24° C.).
Hippocampal slices were incubated with vehicle or Aβ1-42 (200 nM) species (monomers, oligomers or fibrils) for 3 h at RT in gassed aCSF. We chose to perform slice incubation at RT, to avoid neuronal damage by hypoxic injury^27.
Slices were transferred to a submerging chamber (1 ml) and continuously superfused at a3 ml/min rate with gassed aCSF at 32° C. Perfusion tubes were coated with 0.1 mg/ml BSA prior to experiments to avoid adsorption of BDNF to the tubes^35. Evoked field excitatory postsynaptic potentials (fEPSP) were recorded extracellularly through a microelectrode filled with 4 M NaCl (2-8 MΩ resistance) placed in the stratum radiatum of the CA1 area, as previously described^34,35. One pathway of the Schaffer collateral/commissural fibers was stimulated (rectangular pulses of 0.1 ms duration) at every 15 s (for V/O curves, basal synaptic transmission and Paired-Pulse Facilitation (PPF) recordings) or every 20 s (for LTP recordings), by a bipolar concentric wire electrode placed on the Schaffer fibers in the stratum radiatum, in the CA1 area. The initial intensity of the stimulus was adjusted to obtain a submaximal fEPSP slope with a minimum population spike contamination, near one-fifth of the fEPSP slope obtained with supramaximal stimulation. The averages of eight consecutive fEPSPs were obtained and the slope of the initial phase of the potential was quantified. Recordings were obtained with an Axoclamp 2B amplifier (Axon Instruments, Foster City, CA), digitized and continuously stored on a personal computer with the LTP program 3. All the protocols detailed below were started only after a stable baseline of at least 20 minutes.
Long-Term Potentiation induction and saturation. A weak LTP-inducing θ-burst protocol consisting of four trains of 100 Hz, four stimuli, separated by 200 ms was used (4×4)^34,37. The intensity of the stimulus was never changed. LTP magnitude was quantified as the normalized change in the average slope of the fEPSP taken from 50 to 60 min after LTP induction in relation to the average slope of the fEPSP measured during the 10 min that preceded the induction of LTP.
For the experiments in FIG. 2, Brain-Derived Neurotrophic Factor (BDNF, 30 ng/ml) was added to the superfusing solution 20 min before the induction of LTP. Controls for these experiments were performed in different slices, without BDNF superfusion, on the same day. Generally, when testing BDNF effect on synaptic plasticity, two independent pathways of the same hippocampal slice are used, one serving as test and the other as internal control^35,38. However, because in the present experimental design slices were previously exposed to vehicle/Aβ for 3 h, we chose to test BDNF effect in different slices from the same rats. […]

Substance	BDNF effect on glutamate release after Aβ1-42 monomeric or fibrillar species (hippocampal synaptosomes; Aβ 200 nM monomers or fibrils, P<0.05)	BDNF effect on glutamate release after Aβ1-42 oligomeric species (hippocampal synaptosomes; Aβ 200 nM oligomers, P>0.05)	glutamate release, control conditions (hippocampal synaptosomes; P<0.01)	LTP magnitude, control conditions (hippocampal slices; BDNF 30 ng/ml)	BDNF effect on LTP after Aβ1-42 monomeric or fibrillar species (hippocampal slices; BDNF 30 ng/ml, Aβ 200 nM monomers or fibrils, P<0.05)	BDNF effect on LTP after Aβ1-42 oligomeric species (hippocampal slices; BDNF 30 ng/ml, Aβ 200 nM oligomers, P>0.05)	effect of exogenous BDNF on LTP in slices exposed to TAT-TrkB and Aβ oligomers (hippocampal slices; BDNF 30 ng/ml, TAT-TrkB 20 μM, Aβ 200 nM, P>0.05)	effect on LTP in slices exposed to Aβ oligomers and TAT-TrkB (hippocampal slices; TrkB-Fc 2 μg/ml superfused from 30 min before LTP induction, TAT-TrkB 20 μM, P<0.05)
BDNF: Brain-derived Neurotrophic Factor, supplied by Regeneron Pharmaceuticals	preserved	impaired	boosted	boosted	preserved	impaired	did not boost LTP further	–
TrkB-Fc: recombinant human TrkB/Fc chimera, BDNF's scavenger [reference compound]	–	–	–	–	–	–	–	counteracts the effect of TAT-TrkB on LTP reestablishment

Reference: patent US20230321189A1, “THERAPEUTIC AGENTS, PHARMACEUTICAL COMPOSITIONS, AND ASSOCIATED BIOMARKERS BASED ON TRK-B” (INSTITUTO DE MEDICINA MOLECULAR JOÃO LOBO ANTUNES, priority 2020, published 2023)
